System: RPTEC/TERT1 cells
Experiment: Cathepsin D immunofluorescence (KE2, disruption of lysosomes)
Format: cell-based, human
Procedure: For immunocytochemistry experiments, cells were seeded into 8-well chamber slides (Ibidi) at a density of 140 cells per µL in 300 µL growth medium and were allowed to grow for 48 h (NRK-52E) or 10 d (RPTEC/TERT1) respectively. For treatment, stock solutions (1,000 µM) of compounds dissolved in growth medium were freshly prepared and serial dilutions were made before exposure of cells for 24 h. After treatment, cells were washed twice with 150 µL PBS and fixed with 150 µL 4% paraformaldehyde in 1 x PBS for 10 min at room temperature. […]
After incubation with primary antibody, cells were washed three times for 15 min with 0.2% Tween in 1 x PBS (150 µL) on an orbital shaker. […] To preserve fluorescence 50–100 µL DAPI mounting medium (Vectashield®; Vectorlab, Biozol) was added to the cells and chamber slides were stored at 4°C in the dark until image acquisition.
Images were taken with a TCS SP5 II confocal microscope with an HCX PL APO lambda blue 63.0 × 1.40 OIL UV objective (Leica Microsystems, Wetzlar, GER) (n = 10 cells/treatment group). […] Before quantification, images were blinded and randomized. Quantification of fluorescence intensity was performed using NIH Image® software. […] The mean values of the pixel intensities were automatically calculated by the software and imported in Excel for further processing.

Polymyxin B
BMC10, KE2 (in vitro POD from KE dose-response, cathepsin D intensity, RPTEC/TERT1, 24 h treatment, n = 3): 6.8 µM
MOE, KE2 (margin of exposure: BMC10 in RPTEC/TERT1 vs human plasma/serum concentration (cmax or css)): 1.7 - 11.9
